The test has as its target human GPR40 (Homo sapiens (Human), UniProt O14842). The test is described as follows: GPR40 Calcium Flux Assay. Format: cell-based. Conditions: transfected HEK293 cells stably expressing human GPR40; Ca2+ mobilization; mean data; read-out: hGPR40 Ca^2+ Assay EC50. On the procedure: Compounds were tested in a calcium flux assay using transfected HEK293 cells stably expressing either human GPR40 or rat GPR40. Human GPR40 expressing cells were cultured in DMEM-High Glucose media supplemented with 10% fetal bovine serum, 1×L-Glutamine, 1×Penicillin/Streptomycin and 500 μg/mL G418. Rat GPR40 expressing cells were cultured in DMEM-High Glucose media supplemented with 10% fetal bovine serum and 1 μg/mL puromycin. Cells were plated into poly-D-lysine coated 384-well plates and cultured overnight in a 37° C. humidified tissue culture incubator under 5% CO2/[…] atmosphere. On the day of the experiment, the culture media was replaced with assay buffer (HBSS, 20 mM HEPES, 0.1% BSA) and the cells incubated at 37° C. for 1 h. Calcium-sensitive fluorescent dye (Fluo 8 No-Wash Calcium Dye, ABD Bioquest) was then added and the cells incubated for another 30 min at 37° C. followed by 15 min at room temperature while protected from the light. The cell plate and a plate of diluted compounds of Formula (I) were loaded into a fluorescent plate reader that added compounds onto the cells while measuring the fluorescence intensity of each well. The plate reader recorded fluorescence intensity at 1 second intervals for 8 min and provided the data for analysis in an Excel format. EC50 values were calculated using Prism (GraphPad) software.
For orientation: Calcium flux is commonly read through the fluorescence of an indicator in the cells.

human GPR40, sequence (O14842 whole entry): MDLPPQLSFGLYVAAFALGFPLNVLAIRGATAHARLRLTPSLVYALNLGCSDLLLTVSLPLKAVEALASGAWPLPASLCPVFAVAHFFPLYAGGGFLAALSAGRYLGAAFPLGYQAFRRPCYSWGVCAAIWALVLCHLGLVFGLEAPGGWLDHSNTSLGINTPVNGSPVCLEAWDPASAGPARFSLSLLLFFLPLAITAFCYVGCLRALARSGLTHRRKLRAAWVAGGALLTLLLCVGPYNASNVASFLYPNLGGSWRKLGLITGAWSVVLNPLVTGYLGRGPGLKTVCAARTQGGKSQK

In general, EC50 refers to the concentration giving half of the maximal effect. On to `CC#C[C@@H](CC(=O)O)c1ccc(OCc2ccc3scc(-c4ccc(OCC5CCS(=O)(=O)CC5)cc4C)c3c2)cc1` [Cpd 17, (3S)-3-(4-((3-(4-((1,1-Dioxidotetrahydro-2H-thiopyran-4-yl)methoxy)-2-methylphenyl)benzo[b]thiophen-5-yl)methoxy)phenyl)hex-4-ynoic acid], for which the EC50 amounted to 6 nM.
Then `CC#C[C@@H](CC(=O)O)c1ccc(OCc2ccc3scc(-c4ccc(OCCC(C)(C)O)cc4C)c3c2)cc1` [Cpd 12, (3S)-3-(4-((3-(4-(3-Hydroxy-3-methylbutoxy)-2-methylphenyl)benzo[b]thiophen-5-yl)methoxy)phenyl)hex-4-ynoic acid], with 9 nM; and `CC#C[C@@H](CC(=O)O)c1ccc(OCc2ccc3scc(-c4cccc(OCCOC)c4C)c3c2)cc1` [Cpd 67, (3S)-3-[4-([3-[3-(2-Methoxyethoxy)-2-methylphenyl]-1-benzothiophen-5-yl]methoxy)phenyl]hex-4-ynoic acid], with 9 nM.
With `CC#C[C@@H](CC(=O)O)c1ccc(OCc2ccc3scc(-c4ccc(OCC5CCS(=O)(=O)CC5)cc4C)c3c2)nc1` [Cpd 75, (3R)-3-(6-((3-(4-((1,1-Dioxidotetrahydro-2H-thiopyran-4-yl)methoxy)-2-methylphenyl)benzo[b]thiophen-5-yl)methoxy)pyridin-3-yl)hex-4-ynoic acid], the EC50 was 7 nM.
As for `CC#C[C@@H](CC(=O)O)c1ccc(COc2ccc3scc(-c4ccc(OCCOC)cc4C)c3c2)cc1` [Cpd 58, (3S)-3-[4-[([3-[4-(2-Methoxyethoxy)-2-methylphenyl]-1-benzothiophen-5-yl]oxy)methyl]phenyl]hex-4-ynoic acid], the EC50 was 14 nM.
As to `CC#C[C@@H](CC(=O)O)c1ccc(OCc2ccc3scc(-c4cnc(OC)cc4C)c3c2)cc1` [Cpd 82, (3S)-3-(4-((3-(6-Methoxy-4-methylpyridin-3-yl)benzo[b]thiophen-5-yl)methoxy)phenyl)hex-4-ynoic acid], the EC50 stood at 37 nM.
With `CC#C[C@@H](CC(=O)O)c1ccc(OCc2ccc3scc(-c4ccc(OCC5(C)CS(=O)(=O)C5)cc4C)c3c2)cc1` [Cpd 18, (3S)-3-(4-((3-(2-Methyl-4-((3-methyl-1,1-dioxidothietan-3-yl)methoxy)phenyl)benzo[b]thiophen-5-yl)methoxy)phenyl)hex-4-ynoic acid], the EC50 is 11 nM.
As for `CC#C[C@@H](CC(=O)O)c1ccc(OCc2ccc3scc(-c4ccncc4OC)c3c2)cc1` [Cpd 83, (3S)-3-(4-((3-(3-Methoxypyridin-4-yl)benzo[b]thiophen-5-yl)methoxy)phenyl)hex-4-ynoic acid], the figure is 10 nM; as for `CC#C[C@H](CC(=O)O)c1ccc(OCc2ccc3scc(-c4ccc(OCC5CCS(=O)(=O)CC5)cc4C)c3c2)nc1` [Cpd 74, (3S)-3-(6-((3-(4-((1,1-Dioxidotetrahydro-2H-thiopyran-4-yl)methoxy)-2-methylphenyl)benzo[b]thiophen-5-yl)methoxy)pyridin-3-yl)hex-4-ynoic acid], 180 nM.
In the case of `Cc1ccccc1-c1csc2ccc(COc3ccc([C@]4(CC(=O)O)C[C@@H](O)C4)cc3)cc12` [Cpd 31], the EC50 was 48 nM.
Then `CC#C[C@@H](CC(=O)O)c1ccc(OCc2ccc3scc(-c4c(C)cccc4NS(C)(=O)=O)c3c2)cc1` [Cpd 44, (3S)-3-(4-((3-(2-Methyl-6-(methylsulfonamido)phenyl)benzo[b]thiophen-5-yl)methoxy)phenyl)hex-4-ynoic acid], with 22 nM; and `CC#C[C@@H](CC(=O)O)c1ccc(OCc2ccc3scc(-c4cccnc4OC)c3c2)cc1` [Cpd 78, (3S)-3-(4-((3-(2-Methoxypyridin-3-yl)benzo[b]thiophen-5-yl)methoxy)phenyl)hex-4-ynoic acid], with 9 nM; and `CC#C[C@@H](CC(=O)O)c1ccc(OCc2ccc3scc(-c4cc(Cl)ncc4C)c3c2)cc1` [Cpd 52, (3S)-3-(4-((3-(2-Chloro-5-methylpyridin-4-yl)benzo[b]thiophen-5-yl)methoxy)phenyl)hex-4-ynoic acid], with 19 nM.
Then `CC#CC(CC(=O)O)c1ccc(OCc2ccc3scc(-c4ccc(OCC5(C)CS(=O)(=O)C5)cc4C)c3c2)nc1` (centres unmarked) [Cpd 64, 3-(6-((3-(2-Methyl-4-((3-methyl-1,1-dioxidothietan-3-yl)methoxy)phenyl)benzo[b]thiophen-5-yl)methoxy)pyridin-3-yl)hex-4-ynoic acid], with 21 nM; and `CC#C[C@@H](CC(=O)O)c1ccc(OCc2ccc3scc(-c4c(C)cccc4OCCOC)c3c2)cc1` [Cpd 66, (3S)-3-[4-([3-[2-(2-Methoxyethoxy)-6-methylphenyl]-1-benzothiophen-5-yl]methoxy)phenyl]hex-4-ynoic acid], with 14 nM.
Then `CC#C[C@@H](CC(=O)O)c1ccc(OCc2ccc3scc(-c4ccc(OCCOC)nc4C)c3c2)cc1` [Cpd 50, (3S)-3-(4-((3-(6-(2-Methoxyethoxy)-2-methylpyridin-3-yl)benzo[b]thiophen-5-yl)methoxy)phenyl)hex-4-ynoic acid], with 12 nM; and `CC#C[C@@H](CC(=O)O)c1ccc(OCc2ccc3scc(-c4ccc(C5CCS(=O)(=O)CC5)cc4C)c3c2)cc1` [Cpd 8, (3S)-3-[4-[[3-[4-(1,1-Dioxothian-4-yl)-2-methyl-phenyl]benzo[b]thiophen-5-yl]methoxy]phenyl]hex-4-ynoic acid], with 20 nM.
On to `CC#C[C@@H](CC(=O)O)c1ccc(COc2ccc3scc(-c4ccc(OCC5(C)COC5)cc4C)c3c2)cc1` [Cpd 56, (3S)-3-(4-[[(3-[2-Methyl-4-[(3-methyloxetan-3-yl)methoxy]phenyl]-1-benzothiophen-5-yl)oxy]methyl]phenyl)hex-4-ynoic acid], for which the EC50 is 34 nM.
With `CC#C[C@@H](CC(=O)O)c1ccc(OCc2ccc3scc(-c4ccccc4C(F)(F)F)c3c2)cc1` [Cpd 21, (3S)-3-(4-((3-(2-(Trifluoromethyl)phenyl)benzo[b]thiophen-5-yl)methoxy)phenyl)hex-4-ynoic acid], the EC50 was found to be 8 nM.
As for `CC#CC(CC(=O)O)c1ccc(OCc2ccc3scc(-c4ccc(OCC5CCS(=O)(=O)CC5)cc4C)c3c2)nc1` (centres unmarked) [Cpd 63, 3-(6-((3-(4-((1,1-Dioxidotetrahydro-2H-thiopyran-4-yl)methoxy)-2-methylphenyl)benzo[b]thiophen-5-yl)methoxy)pyridin-3-yl)hex-4-ynoic acid], the figure is 10 nM; as for `CC#C[C@@H](CC(=O)O)c1ccc(OCc2ccc3scc(-c4nc(OC)ccc4C)c3c2)cc1` [Cpd 94, (3S)-3-(4-((3-(6-Methoxy-3-methylpyridin-2-yl)benzo[b]thiophen-5-yl)methoxy)phenyl)hex-4-ynoic acid], 15 nM.
With `CC#C[C@@H](CC(=O)O)c1ccc(OCc2ccc3scc(-c4ccc(C(=O)N5CCS(=O)(=O)CC5)cc4C)c3c2)cc1` [Cpd 5, (3S)-3-[4-[[3-[4-(1,1-Dioxo-1,4-thiazinane-4-carbonyl)-2-methyl-phenyl]benzo[b]thiophen-5-yl]methoxy]phenyl]hex-4-ynoic acid], the EC50 came to 23 nM.
As for `Cc1cc(C2CCS(=O)(=O)CC2)ccc1-c1csc2ccc(COc3ccc(C4(CC(=O)O)CC(=O)C4)cc3)cc12` [Cpd 29, 2-(1-(4-((3-(4-(1,1-Dioxidotetrahydro-2H-thiopyran-4-yl)-2-methylphenyl)benzo[b]thiophen-5-yl)methoxy)phenyl)-3-oxocyclobutyl)acetic acid], the figure is 34 nM; as for `CC#C[C@@H](CC(=O)O)c1ccc(COc2ccc3scc(-c4ccc(OCC(O)CO)cc4C)c3c2)cc1` (stereo partly drawn) [Cpd 55, (3S)-3-[4-[([3-[4-(2,3-Dihydroxypropoxy)-2-methylphenyl]-1-benzothiophen-5-yl]oxy)methyl]phenyl]hex-4-ynoic acid], 33 nM; as for `Cc1cc(OC2CCOCC2)ccc1-c1csc2ccc(COc3ccc(C4(CC(=O)O)CC(=O)C4)cc3)cc12` [Cpd 34, 2-(1-(4-((3-(2-Methyl-4-((tetrahydro-2H-pyran-4-yl)oxy)phenyl)benzo[b]thiophen-5-yl)methoxy)phenyl)-3-oxocyclobutyl)acetic acid], 25 nM.
Then `CC#C[C@@H](CC(=O)O)c1ccc(OCc2ccc3scc(-c4ccc(C5=CCS(=O)(=O)CC5)cc4C)c3c2)cc1` [Cpd 6, (3S)-3-[4-[[3-[4-(1,1-Dioxo-3,6-dihydro-2H-thiopyran-4-yl)-2-methyl-phenyl]benzo[b]thiophen-5-yl]methoxy]phenyl]hex-4-ynoic acid], with 15 nM.
As for `CC#CC(CC(=O)O)c1ccc(OCc2ccc3scc(-c4ccccc4C)c3c2)nc1` (centres unmarked) [Cpd 45, 3-(6-((3-(2-Methylphenyl)benzo[b]thiophen-5-yl)methoxy)pyridin-3-yl)hex-4-ynoic acid], the figure is 13 nM; as for `Cc1ccccc1-c1csc2ccc(COc3ccc(C4(CC(=O)O)CC(=O)C4)cc3)cc12` [Cpd 30, 2-(3-Oxo-1-(4-((3-(2-methylphenyl)benzo[b]thiophen-5-yl)methoxy)phenyl)cyclobutyl)acetic acid], 6 nM.
Regarding `CC#C[C@@H](CC(=O)O)c1ccc(OCc2ccc3scc(-c4cc(NS(C)(=O)=O)ccc4C)c3c2)cc1` [Cpd 43, (3S)-3-(4-((3-(2-Methyl-5-(methylsulfonamido)phenyl)benzo[b]thiophen-5-yl)methoxy)phenyl)hex-4-ynoic acid], the EC50 is 31 nM.

The values above are taken from patent US10131648B2, “Substituted benzothiophenyl derivatives as GPR40 agonists for the treatment of type II diabetes” (Janssen Pharmaceutica NV, priority 2014, dated 2018).
